Reference: the NIST ThermoML archive (doi:10.1016/j.fluid.2011.02.015)

Details: Liquid, hot wire

FC(F)(F)CC(F)(F)F [1,1,1,3,3,3-hexafluoropropane]
Details | thermal conductivity [W/m/K]
252.57 K, 10000 kPa | 0.0912
252.8 K, 5000 kPa | 0.0891
252.87 K, 100 kPa | 0.0873
252.92 K, 10000 kPa | 0.0914
253.16 K, 5000 kPa | 0.0887
253.24 K, 20000 kPa | 0.0955
253.38 K, 100 kPa | 0.0872
253.41 K, 30000 kPa | 0.0972
253.47 K, 20000 kPa | 0.0949
253.51 K, 20000 kPa | 0.0952
253.6 K, 10000 kPa | 0.0911
253.65 K, 5000 kPa | 0.0891
253.66 K, 100 kPa | 0.0872
253.86 K, 30000 kPa | 0.0971
255.05 K, 30000 kPa | 0.0973
272.91 K, 30000 kPa | 0.0926
273.36 K, 10000 kPa | 0.0847
273.45 K, 20000 kPa | 0.0896
273.49 K, 1000 kPa | 0.0814
273.66 K, 10000 kPa | 0.0851
273.82 K, 5000 kPa | 0.0833
273.85 K, 1000 kPa | 0.081
273.86 K, 1000 kPa | 0.0812
273.95 K, 30000 kPa | 0.0929
274.06 K, 20000 kPa | 0.0895
274.16 K, 5000 kPa | 0.0832
274.27 K, 10000 kPa | 0.0855
274.33 K, 30000 kPa | 0.0927
274.57 K, 20000 kPa | 0.0892
274.63 K, 5000 kPa | 0.0835
293.15 K, 10000 kPa | 0.0802
293.22 K, 1000 kPa | 0.0762
293.42 K, 30000 kPa | 0.0894
293.49 K, 1000 kPa | 0.0767
293.61 K, 5000 kPa | 0.0782
293.65 K, 10000 kPa | 0.0805
293.76 K, 5000 kPa | 0.0781
293.76 K, 30000 kPa | 0.0891
293.85 K, 10000 kPa | 0.0802
293.95 K, 5000 kPa | 0.0783
294.47 K, 1000 kPa | 0.0764
294.54 K, 30000 kPa | 0.0893
312.5 K, 5000 kPa | 0.0705
312.59 K, 1000 kPa | 0.0682
312.89 K, 5000 kPa | 0.0709
313.01 K, 1000 kPa | 0.0683
313.28 K, 5000 kPa | 0.0706
313.39 K, 1000 kPa | 0.068
313.53 K, 20000 kPa | 0.0809
313.55 K, 10000 kPa | 0.0757
313.85 K, 10000 kPa | 0.0761
313.86 K, 30000 kPa | 0.0853
314.04 K, 10000 kPa | 0.0758
314.06 K, 30000 kPa | 0.085
314.2 K, 20000 kPa | 0.0809
315.13 K, 20000 kPa | 0.0815
315.13 K, 30000 kPa | 0.0852
332.48 K, 10000 kPa | 0.0699
332.49 K, 5000 kPa | 0.0654
332.51 K, 1000 kPa | 0.0623
332.72 K, 30000 kPa | 0.0805
332.79 K, 20000 kPa | 0.0756
332.84 K, 30000 kPa | 0.0813
332.85 K, 10000 kPa | 0.0695
332.87 K, 1000 kPa | 0.0624
332.89 K, 5000 kPa | 0.0651
333.2 K, 10000 kPa | 0.0695
333.24 K, 1000 kPa | 0.0623
333.26 K, 5000 kPa | 0.0648
333.48 K, 30000 kPa | 0.0802
333.59 K, 20000 kPa | 0.0755
334.42 K, 20000 kPa | 0.0761
353.02 K, 30000 kPa | 0.0749
353.17 K, 10000 kPa | 0.0636
353.29 K, 20000 kPa | 0.0705
353.35 K, 2000 kPa | 0.0565
353.35 K, 5000 kPa | 0.0593
353.57 K, 30000 kPa | 0.0744
353.68 K, 2000 kPa | 0.0564
353.74 K, 5000 kPa | 0.0592
353.74 K, 20000 kPa | 0.0701
353.82 K, 10000 kPa | 0.0635
353.95 K, 30000 kPa | 0.0741
354.09 K, 20000 kPa | 0.0699
354.12 K, 2000 kPa | 0.056
354.24 K, 10000 kPa | 0.0633
354.4 K, 5000 kPa | 0.0594
373.08 K, 10000 kPa | 0.0597
373.15 K, 30000 kPa | 0.0726
373.22 K, 5000 kPa | 0.0554
373.4 K, 20000 kPa | 0.0672
373.46 K, 3000 kPa | 0.0525
373.56 K, 10000 kPa | 0.0596
373.72 K, 5000 kPa | 0.0559
373.8 K, 30000 kPa | 0.0727
373.84 K, 3000 kPa | 0.0524
373.87 K, 20000 kPa | 0.0677
374.1 K, 10000 kPa | 0.0601
374.21 K, 30000 kPa | 0.0724
374.24 K, 5000 kPa | 0.0557
374.26 K, 3000 kPa | 0.0526
374.57 K, 20000 kPa | 0.0672
